{"source": "patent US10023613B2", "about": "“Peptidomimetic macrocycles as modulators of MCL-1” (AILERON Therapeutics, Inc., priority 2015, dated 2018)", "system": "Human Raji cells", "format": "cell-based", "conditions": "Raji Cell Viability, 48 h, 5% serum", "description": "BIM peptidomimetic macrocycles were tested for cell killing at various concentrations. Human Raji cells were treated with increasing doses of peptidomimetic macrocycles corresponding to SEQ ID NO. 763 (FIGS. 1 and 2), 1143 (FIGS. 1-3), and 1621 (FIGS. 3 and 4). An % Viable cells was calculated for each dose of the peptidomimetic macrocycle from a non-linear fit of response vs dose (GraphPad Prism). […]", "note": "Bridge positions count the residues as written; N and C are the ends. Square brackets hold non-standard residues; d marks the D form. Peptide text beside a SMILES is read from it. R8 = C=CCCCCCC[C@@](C)(N)C(=O)O; S5 = C=CCCC[C@](C)(N)C(=O)O", "data": [{"molecule": "CC[C@H](C)[C@H](NC(C)=O)C(=O)N[C@@H](Cc1c[nH]c2ccccc12)C(=O)N[C@H](C(=O)N[C@@H](C)C(=O)N[C@@H](CCC(N)=O)C(=O)N[C@@H](C)C(=O)N[C@@H](CC(C)C)C(=O)N[C@@H](CCCNC(=N)N)C(=O)N[C@]1(C)CCCCCCC=CCCC[C@@](C)(C(=O)N[C@@H](Cc2ccc(O)cc2)C(=O)N[C@@H](Cc2ccc(O)cc2)C(=O)N[C@@H](C)C(N)=O)NC(=O)[C@H](CC(N)=O)NC(=O)[C@H](Cc2ccccc2)NC(=O)[C@H](CCC(=O)O)NC(=O)[C@H](CC(=O)O)NC(=O)CNC(=O)[C@H]([C@@H](C)CC)NC1=O)[C@@H](C)CC", "note": "[compound 1647] (Ac-IWIAQALR[R8]IGDEFN[S5]YYA-NH2; staple 9-16)", "values": [{"measurement": "EC50", "value": "> 40", "unit": "µM"}]}]}
